# Assay results from patent US20210371385A1, “POLYMORPHIC AND AMORPHOUS FORMS OF ISOQUINOLINONE AND METHODS OF USE THEREOF” (Sojournix, Inc., priority 2018, published 2021).
# Like-named read-outs stand apart in the source and are kept apart here.
# Key:
# [1] = Log P/D determination, pH-metric titration with 1-octanol; type: physicochemical
# Experimental: Log P and log D were determined for SJB-01 free base using 1-octanol as the partition solvent (Table 2). Log P was experimentally determined to be 4.73 which is larger than the predicted value for the structure, the corresponding Bjerrum plot is shown in FIG. 6. A log D profile (FIG. 5) was constructed for SJB-01 based on the distribution of the API at a particular pH.
# (§1) pKa and log P/D data were collected using Pion PULSE Attain software. The Pion PULSE solutions consisted of using ionic strength adjusted water (0.15 M KCl), 0.5 M HCl and […] which were used for all titrations. Purge gas (argon) was used for HEPES (probe validation), KHP (KOH concentration determination), aqueous potentiometric and log P/D potentiometric titrations.
# (§2) The Pion PULSE was equipped with an overhead variable speed stirrer, double junction Ag/AgCl pH probe, UV probe with a 1 cm pathlength, Carl-Zeiss spectrophotometer with 256-bit photodiode array, and a temperature probe. The pH of the instrument can range from 1.8-12.2. The compatible co-solvents are MeOH, EtOH, ACN, DMSO and 1,4-dioxane. pKa measurements were completed by either potentiometric or UV-metric methods. log P/D was measured using water saturated 1-octanol as the partitioning solvent. Data was refined using the Pion PULSE refine software.
# [2] = Intrinsic Dissolution Rate (IDR); type: physicochemical; conditions: FeSSIF media, presence of bile components
# Experimental: The Intrinsic Dissolution Rate (IDR) was calculated for a beta polymorph form of SJB-01. A tablet of the compound was pressed and put into a dissolution chamber. It was subsequently measured how fast the substance was dissolved from the surface into the solvent. Initially, the experiment was performed in a standard buffer (0.001 M HCl pH 3.0), reflecting the stomach conditions at fastened state.
# Due to the high impact of bile components on solubilisation of SJB-01, IDR was performed in FeSSIF media, reflecting the fed-state in humans.
# [3] = Absorption of solid compound dosed orally in rats; type: in vivo, Sprague Dawley rats; conditions: for bioavailability: Sprague Dawley, rat, in vivo, oral microsuspension, read-out: Absolute bioavailability
# Experimental: The possibility of dosing SJB-01 orally as a solid was explored in rats, as a means to evaluate the developability of the compound. Clinical relevant doses (1, 5 and 10 mg/kg) were administered to rats as microsuspensions. Furthermore, to explore the role of particle size, a suspension (5 mg/kg) was administered as well for comparison.
# [4] = Log P/D7.4 by shake flask method, octanol-buffer; type: physicochemical; conditions: pH 7.4, octanol-buffer two phase system
# Experimental: The Log P/D7.4 value was determined by the shake flask method in an octanol-buffer two phase systems.
# [5] = in vivo, 140 mg/kg
# Experimental: Formulations for toxicological evaluation of SJB-01 were considered. The highest solubility was obtained with 100% PEG 400 and a mixture of Gelucire and PEG 400. Since a formulation with Gelucire:PEG required increased handling time, including dosing at ˜45° C., 100% PEG 400 was chosen for formulation purpose in the early toxicological evaluation including mini-MTD (maximum tolerated dose) and a 14 days toxicological dosing study. The maximum dose reached was 140 mg/kg-the highest possible dose achievable with PEG 400 as vehicle. […] From a formulation perspective, this can only be done by using Gelucire:PEG as a vehicle, under the assumption that a solution will lead to a higher bioavailability than dosing the compound in a PEG 400 suspension. In the table below, the maximum dose of SJB-01 given on a solubilized form is provided, taking into account the tolerated dose of the vehicle as well.
# [6] = Chemical stability (oxygen, pH, light, PEG 400); type: physicochemical
# [7] = Solubility in buffered solutions vs pH at 37 °C (HPLC); type: physicochemical; conditions: thermodynamic from solid, read-out: Solubility at 24 h
# Experimental: Aqueous buffers between pH 1.3 and 7.4 (13 total) were prepared and 3 mL added to about 15 mg of SJB-01 (L100149-44-1, jet-milled). These slurries were stirred on a hot-plate at 37° C. for 24 hours. Sonication and vortexting was employed within the first 2 hours of stirring to ensure thorough mixing and wetting of the solids as there was a clear tendency for them to clump and float at the liquid surface. After sonication and vortexing there was substantial solids suspended in solution (slurry) along with the solids that floated on top. At 24 hours, the samples were collected by syringe filtration of about 2 mL of solution. The first 1 mL of solution that passed through the filter was discarded and the second 0.5-1 mL of solution was used for HPLC analysis. The samples were injected into HPLC without dilution.
# SJB-01 (L100149-44-1) was weighed directly into volumetric flasks and filled to volume with ACN:water (6:4 vol.) to build a calibration curve. […] Details for the HPLC method used are given in Table 34; these follow the parameters used for previous dissolution study.
# [8] = pKa measured by titration (Example 3); type: physicochemical; conditions: measurable detection limit of 2
# Experimental: The pKa value was measured by titration.
# [9] = pKa determination, co-solvent potentiometric titration (Yasuda-Shedlovsky extrapolation); type: physicochemical; conditions: 25.4 °C, MeOH co-solvent potentiometric, extrapolated to 0% co-solvent
# Experimental: pKa determination and assignment was completed on SJB-01 (FIG. 1). About 2 mg of SJB-01 (100142-1-1) was titrated three times with varying concentrations of MeOH as co-solvent to generate a Yasuda-Shedlovsky plot (L100142-65-4, FIG. 2 and Table 1). Extrapolation of the Yasuda-Shedlovsky plot to 0% co-solvent determined the pKa's (FIG. 3), which are acidic 5.76, basic 3.03. Acidic pKa is in red and basic pKa is in blue.
# as §1, §2
smiles,measurement,setting,value
"CCNn1c(C)c(C(=O)N[C@H](c2ccccc2)C2CC2)c2cccc(F)c2c1=O [SJB-01, 2-Ethylamino-8-fluoro-3-methyl-1-oxo-1,2-dihydro-isoquinoline-4-carboxylic acid ((S)-cyclopropyl-phenyl-methyl)-amide]",logD,"[1]; 1-octanol/water, pH 7.4, pH 7.40, 1-octanol, from log D profile, read-out: log D7.40",3.04
same,logP,"[1]; neutral species, 1-octanol:water, 25.3 °C, pH-metric, three titrations",4.73 ± 0.14
same,IDR in FeSSIF media versus standard buffer,[2],not further increased
same,bioavailability,[3]; 10 mg/kg,~30%
same,bioavailability,[3]; 1 and 5 mg/kg,~20%
same,"Bioavailability, comparison of particle size","[3]; oral, 5 mg/kg, particle size 10 and 50 μm",no differences in bioavailability
same,logP,[4],3.3
same,Clinical observations at maximum dose reached,[5],no clinical observations
same,Time stable in PEG 400,"[6]; PEG 400, room temperature, covered from light",at least 4 months
same,Compound decomposed,"[6]; aqueous solution, extreme light exposure, 24 hr",100%
same,Stability to oxygen and pH,"[6]; exposed to oxygen and pH 2, 4, 6, and 7.4",stable
same,Compound left,"[6]; solid compound, extreme light exposure, 24 hr",~86%
same,solubility at 24 h,"[7]; Britton-Robinson 0.05M buffer, aqueous buffer, Britton-Robinson 0.05M, initial pH 2.21, 24 h pH 2.22, 37 °C",7.9 µg/mL
same,solubility at 24 h,"[7]; Britton-Robinson 0.05M buffer, aqueous buffer, Britton-Robinson 0.05M, initial pH 2.85, 24 h pH 2.97, 37 °C",7.4 µg/mL
same,solubility at 24 h,"[7]; Britton-Robinson 0.05M buffer, aqueous buffer, Britton-Robinson 0.05M, initial pH 4.95, 24 h pH 5.01, 37 °C",7.7 µg/mL
same,solubility at 24 h,"[7]; Citric acid/NaOH 0.05M buffer, aqueous buffer, Citric acid/NaOH 0.05M, initial pH 2.86, 24 h pH 2.88, 37 °C",8.1 µg/mL
same,solubility at 24 h,"[7]; Citric acid/NaOH 0.05M buffer, aqueous buffer, Citric acid/NaOH 0.05M, initial pH 3.82, 24 h pH 3.85, 37 °C",7.5 µg/mL
same,solubility at 24 h,"[7]; Citric acid/NaOH 0.05M buffer, pH 4.9, aqueous buffer, Citric acid/NaOH 0.05M, initial pH 4.90, 24 h pH 4.90, 37 °C",7.2 µg/mL
same,solubility at 24 h,"[7]; HCl/KCl 0.05M buffer, aqueous buffer, HCl/KCl 0.05M, initial pH 2.13, 24 h pH 2.16, 37 °C",7.5 µg/mL
same,solubility at 24 h,"[7]; HCl/KCl 0.05M buffer, pH 1.3, simulated gastric fluid, HCl/KCl 0.05M, initial pH 1.34, 24 h pH 1.30, 37 °C, jet-milled beta form",7.8 µg/mL
same,solubility at 24 h,"[7]; KH2PO4/NaOH 0.05M buffer, aqueous buffer, KH2PO4/NaOH 0.05M, initial pH 5.98, 24 h pH 6.04, 37 °C",7.1 µg/mL
same,solubility at 24 h,"[7]; KH2PO4/NaOH 0.05M buffer, aqueous buffer, KH2PO4/NaOH 0.05M, initial pH 7.46, 24 h pH 7.47, 37 °C",6.4 µg/mL
same,solubility at 24 h,"[7]; KHP/HCl 0.05M buffer, aqueous buffer, KHP/HCl 0.05M, initial pH 3.18, 24 h pH 3.14, 37 °C",9.5 µg/mL
same,solubility at 24 h,"[7]; KHP/HCl 0.05M buffer, aqueous buffer, KHP/HCl 0.05M, initial pH 3.89, 24 h pH 3.94, 37 °C",9.8 µg/mL
same,solubility at 24 h,"[7]; KHP/NaOH 0.05M buffer, aqueous buffer, KHP/NaOH 0.05M, initial pH 4.96, 24 h pH 4.99, 37 °C",8.3 µg/mL
same,pKa,[8],< 2
same,pKa (acidic),[9]; acidic,5.76
same,pKa,"[9]; acidic, read-out: pKa (acidic)",5.83 ± 0.11
same,pKa,"[9]; basic, read-out: pKa (basic)",3.03 ± 0.11
